Like-named read-outs stand apart in the source and are kept apart here.
What was measured:
SK-MEL-5 = experiment: Melanoma cytotoxicity assay (resazurin); format: cell-based; details: SK-MEL-5 melanoma cells, 24 hours with compound, resazurin; concentration not given
Summary of the method: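 ~4000 cells/well seeded 24 h, then compound added in triplicate for 24 h at 37° C, 5% CO2. Resazurin added for 6 h; fluorescence at 544/590 nm, background-subtracted and normalised to DMSO wells as % viability; IC50 from sigmoidal fit of serial dilutions.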

SK-MEL-25 = experiment: Melanoma cytotoxicity assay (resazurin); format: cell-based; details: SK-MEL-25 melanoma cells, 24 hours with compound, resazurin; concentration not given
Summary of the method: (§1)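 Growth inhibition was scored by resazurin reduction over 6 h, read by fluorescence, after cells had been treated with serially diluted compounds for 24 h. Background from medium-only wells was subtracted and signal expressed relative to DMSO controls.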

SK-MEL-28 = experiment: Melanoma cytotoxicity assay (resazurin); format: cell-based; details: SK-MEL-28 melanoma cells, 24 hours with compound, resazurin; concentration not given
Summary of the method: as §1

glioblastoma (SF-295) = experiment: NCI 60 five dose screen
[1] = tested on: 60 different human tumor cell lines; details: five dose

C[C@]12CCc3sc(Nc4ccc(OC(F)(F)F)cc4)nc3C1=CC[C@@H]1[C@@H]2CC[C@]2(C)C(=O)CC[C@@H]12 [IIa.19, (1S,2R,13R,14S,18S)-2,18-dimethyl-7-[4-(trifluoromethoxy)anilino]-6-thia-8-azapentacyclo[11.7.0.02,10.05,9.014,18]icosa-5(9),7,10-trien-17-one]
SK-MEL-5 (% inhibition) (SK-MEL-5): 43%
SK-MEL-25 (% inhibition) (SK-MEL-25): 24%
SK-MEL-28 (% inhibition) (SK-MEL-28): 97%
GI50 (glioblastoma (SF-295); Homo sapiens, SF-295): 0.7 µM
CC50 (glioblastoma (SF-295); Homo sapiens, SF-295, read-out: LC50): 7.16 µM
TGI (glioblastoma (SF-295); SF-295 (CNS Cancer), five dose): 2.44E−6
TGI ([1]; A549/ATCC (Non-small Cell Lung Cancer)): 1.61E−5
TGI ([1]; CCRF-CEM (Leukemia)): >1.00E−4
TGI ([1]; COLO 205 (Colon Cancer)): 6.76E−6
TGI ([1]; EKVX (Non-small Cell Lung Cancer)): 1.74E−5
TGI ([1]; HCC-2998 (Colon Cancer)): 1.86E−5
TGI ([1]; HCT-15 (Colon Cancer)): 4.10E−6
TGI ([1]; HCT-116 (Colon Cancer)): 2.78E6
TGI ([1]; HL-60(TB) (Leukemia)): 4.44E−6
TGI ([1]; HOP-62 (Non-small Cell Lung Cancer)): 4.19E−6
TGI ([1]; HOP-92 (Non-small Cell Lung Cancer)): 3.44E−6
TGI ([1]; HT29 (Colon Cancer)): 1.09E−5
TGI ([1]; K-562 (Leukemia)): 6.64E−6
TGI ([1]; KM12 (Colon Cancer)): 1.50E−5
TGI ([1]; LOX IMVI (Melanoma)): 3.18E−6
TGI ([1]; MALME-3M (Melanoma)): 1.68E−5
TGI ([1]; MOLT-4 (Leukemia)): 1.19E−5
TGI ([1]; NCI-H23 (Non-small Cell Lung Cancer)): 2.17E−5
TGI ([1]; NCI-H226 (Non-small Cell Lung Cancer)): 4.41E−5
TGI ([1]; NCI-H322M (Non-small Cell Lung Cancer)): 4.89E−5
TGI ([1]; NCI-H460 (Non-small Cell Lung Cancer)): 1.18E−5
TGI ([1]; NCI-H522 (Non-small Cell Lung Cancer)): 4.56E−6
TGI ([1]; SF-268 (CNS Cancer)): 1.23E−5
TGI ([1]; SNB-19 (CNS Cancer)): 9.93E−6
TGI ([1]; SNB-75 (CNS Cancer)): 6.23E−6
TGI ([1]; SW-620 (Colon Cancer)): 5.00E−6
TGI ([1]; U251 (CNS Cancer)): 3.26E−6

Reference: patent publication US20250296953A1, “3,4-THIAZOLO-STEROIDS AND METHODS OF MAKING AND USING THE SAME” (Arkansas State University - Jonesboro, priority 2018, published 2025)
